From patent US11684614B2, “Formulations of hydroxypyridonate actinide/lanthanide decorporation agents” (priority 2017, dated 2023)

Tests used:
[1] = 28-day oral gavage study in Sprague Dawley rats (SRI No. M512-07); format: in vivo
CYP2B6 = biological target: T1, CYP2B6 (Homo sapiens, UniProt P20813); experiment: CYP inhibition; format: in vitro ADME
T1 sequence (P20813 1-491): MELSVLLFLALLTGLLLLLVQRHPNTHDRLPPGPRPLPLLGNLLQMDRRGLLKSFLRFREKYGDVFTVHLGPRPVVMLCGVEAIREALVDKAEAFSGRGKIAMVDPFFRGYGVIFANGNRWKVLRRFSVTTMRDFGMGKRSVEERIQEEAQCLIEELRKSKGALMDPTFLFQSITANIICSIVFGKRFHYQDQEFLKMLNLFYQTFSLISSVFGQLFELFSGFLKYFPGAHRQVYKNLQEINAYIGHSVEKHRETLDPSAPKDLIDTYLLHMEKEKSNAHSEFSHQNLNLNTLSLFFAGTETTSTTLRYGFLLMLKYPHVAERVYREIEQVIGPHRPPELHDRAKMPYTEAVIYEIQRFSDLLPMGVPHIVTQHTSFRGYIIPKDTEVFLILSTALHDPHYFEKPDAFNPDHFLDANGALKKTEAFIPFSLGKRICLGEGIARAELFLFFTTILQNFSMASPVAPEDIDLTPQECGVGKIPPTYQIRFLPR

[2] = Plasma protein binding, rat; format: in vitro ADME; conditions: tested at 10 μg/ml
Method: Plasma protein binding differed across species; it was greatest in dog (95%), intermediate in human (29%), and lowest in rat (5%) when tested at 10 μg/ml.

CYP3A4 = CYP3A4 (Homo sapiens, UniProt P08684); experiment: CYP inhibition; format: in vitro ADME
Stability in plasma = format: in vitro ADME
[3] = Non-GLP 7-day repeat dose beagle dog study, safety findings (SRI No. B677-13); format: in vivo, beagle dogs
Source text: Clinical observations that were associated with test article administration included post-dose diarrhea and emesis. Specifically, dogs in the mid- and high-dose groups experienced slight or extreme diarrhea on Day 1 between 1 and 6 hr post-dose. Diarrhea was absent from the lowdose group. […] By Day 2, 8 of the 9 affected dogs were normal, with the exception of one highdose group female that had continued slight diarrhea. Slight to moderate emesis occurred <2 hr post-dose (and oftentimes <1 hr post-dose) in 1-3 dogs from each of the 3,4,3-L1(1,2-HOPO) treatment groups and in none of the vehicle control-treated dogs. Post-dose emesis appeared to be dose-dependent since it occurred in 0, 1, 2, and 3 dogs out of 12 dogs per group in control, low, mid, and high dose groups, respectively. Post-dose emesis is a common response to oral dose administration in dogs, and a single occurrence of it in the low dose group could be […] rather than test article-related and is not considered a dose-limiting event. Slight post-dose emesis in this one male dog was the only finding present in the 37.5 mg/kg lowdose treatment group.
No similar renal histopathology findings were found in any of the other on-study dogs. The observation of hemosiderin without fibrosis in the kidney sections from this one dog is consistent with the renal findings having developed within one to three days prior to the Day 15 necropsy. This dog also had corresponding small increases (1.8- and 1.3-fold, respectively) in the renal function markers BUN and CR on Day 15 relative to pre-test. The timing of the renal findings in this recovery group dog is surprising given the fact that 3,4,3-L1(1,2-HOPO) was administered only on Day 1. Therefore, it is unclear if these renal findings are related specifically to high-dose administration of 3,4,3-L1(1,2-HOPO). There were no toxicologically meaningful histopathology findings in any of the dogs on Day 2 or in any of the other dogs on Day 15. Similar renal findings were also absent from the non-GLP 7-day repeat dose dog study (SRI No. B677-13) where 2 dogs/sex received formulated material at higher doses for 4 days followed by equivalent doses for 3 days and then were sacrificed on Day 8.
An evaluation of the serum levels of iron, unsaturated iron binding capacity, total iron binding capacity, magnesium, and ferritin were included in the clinical pathology analysis during the dog safety studies because 3,4,3-L1(1,2-HOPO) is a potent metal chelator.

[4] = GLP single oral dose cardiovascular assessment in beagle dogs (electrocardiogram, blood pressure); format: in vivo; conditions: 37.5, 75, or 150 mg/kg single oral dose
Method: Cardiovascular parameters in beagle dogs after a single oral administration of formulated capsules was determined in a GLP study
Electrocardiograms and blood pressure were evaluated from 3 male and 3 female beagle dogs per dose group (0, 37.5, 75, or 150 mg/kg) at pretest, 1 and 4 hours post-dose, and 7 days after a single oral dose of formulated material (TABLE 8.1). […] Instances of increased or decreased blood pressure (hypertension or hypotension) in various dogs were considered sporadic or due to stress, excitement, or struggling during the time of recording and not test article related. In summary, electrocardiogram and blood pressure assessments in beagle dogs raised no cardiovascular safety concerns.

CYP2C9 = CYP2C9 (Homo sapiens, UniProt P11712); experiment: CYP inhibition; format: in vitro ADME
[5] = Single oral dose GLP safety (toxicology) study in beagle dogs; format: in vivo
Method: The clinical formulation was tested in a single dose GLP toxicology and cardiovascular safety pharmacology study in beagle dogs.
Based on this study, the MTD in dogs after a single oral administration is considered to be greater than 150 mg/kg.

CYP2C19 = CYP2C19 (Homo sapiens, UniProt P33261); experiment: CYP inhibition; format: in vitro ADME
[6] = after treatment, 2 dogs/sex, no control group
[7] = Day 15, the one high-dose female with renal findings

CYP2C19, sequence (P33261 whole entry): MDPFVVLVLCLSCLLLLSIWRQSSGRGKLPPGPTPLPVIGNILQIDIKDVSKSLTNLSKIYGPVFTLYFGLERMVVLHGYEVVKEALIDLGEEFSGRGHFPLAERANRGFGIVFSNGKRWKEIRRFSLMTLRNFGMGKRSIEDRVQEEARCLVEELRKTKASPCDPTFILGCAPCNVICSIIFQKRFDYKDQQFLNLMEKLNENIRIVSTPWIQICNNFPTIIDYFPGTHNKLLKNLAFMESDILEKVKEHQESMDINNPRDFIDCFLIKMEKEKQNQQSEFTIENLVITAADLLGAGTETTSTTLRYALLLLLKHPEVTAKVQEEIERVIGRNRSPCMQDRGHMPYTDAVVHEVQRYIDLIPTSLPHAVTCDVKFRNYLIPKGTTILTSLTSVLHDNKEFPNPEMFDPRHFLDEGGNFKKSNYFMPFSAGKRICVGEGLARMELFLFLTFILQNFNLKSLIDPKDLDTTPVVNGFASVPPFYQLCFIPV
CYP2C9, sequence (P11712 whole entry): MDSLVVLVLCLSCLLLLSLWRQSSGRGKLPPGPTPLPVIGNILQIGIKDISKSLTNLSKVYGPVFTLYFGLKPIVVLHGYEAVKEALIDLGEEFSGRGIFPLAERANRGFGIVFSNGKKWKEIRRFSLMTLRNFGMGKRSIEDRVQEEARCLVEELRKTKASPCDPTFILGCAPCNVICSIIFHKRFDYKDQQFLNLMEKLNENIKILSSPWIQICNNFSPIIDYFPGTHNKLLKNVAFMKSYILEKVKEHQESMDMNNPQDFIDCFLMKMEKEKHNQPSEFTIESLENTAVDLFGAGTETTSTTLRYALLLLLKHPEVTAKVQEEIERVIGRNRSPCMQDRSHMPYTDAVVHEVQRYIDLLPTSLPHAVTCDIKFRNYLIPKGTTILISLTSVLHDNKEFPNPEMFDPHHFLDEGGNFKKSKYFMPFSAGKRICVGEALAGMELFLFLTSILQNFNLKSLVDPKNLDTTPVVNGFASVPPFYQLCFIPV
CYP3A4, sequence (P08684 whole entry): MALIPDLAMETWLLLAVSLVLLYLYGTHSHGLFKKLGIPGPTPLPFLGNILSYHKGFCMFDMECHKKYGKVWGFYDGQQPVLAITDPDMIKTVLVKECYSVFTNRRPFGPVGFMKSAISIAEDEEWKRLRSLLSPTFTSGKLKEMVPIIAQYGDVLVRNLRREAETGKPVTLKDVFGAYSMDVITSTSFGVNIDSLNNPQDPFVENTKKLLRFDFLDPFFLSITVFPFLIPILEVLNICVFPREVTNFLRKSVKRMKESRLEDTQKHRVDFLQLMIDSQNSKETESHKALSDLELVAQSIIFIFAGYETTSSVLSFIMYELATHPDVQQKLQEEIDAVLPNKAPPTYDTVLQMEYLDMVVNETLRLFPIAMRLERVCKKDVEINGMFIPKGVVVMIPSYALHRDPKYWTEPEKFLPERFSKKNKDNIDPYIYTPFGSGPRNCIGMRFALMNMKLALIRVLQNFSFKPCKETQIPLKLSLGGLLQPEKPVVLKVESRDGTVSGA

O=C(NCCCN(CCCCN(CCCNC(=O)c1cccc(=O)n1O)C(=O)c1cccc(=O)n1O)C(=O)c1cccc(=O)n1O)c1cccc(=O)n1O [3,4,3-L1(1,2-HOPO)]
renal findings ([1]; 28 days of oral gavage): no renal findings | soft stools or diarrhea ([1]; oral gavage 7.7-76.9 mg/kg (10-102 μmol/kg) for 28 days): not observed | inhibition of CYP2B6 activity (CYP2B6): did not inhibit | Plasma protein binding [2]: 5% | inhibition of CYP3A4 activity (CYP3A4): did not inhibit | stability in plasma (Stability in plasma): stable | renal findings ([3]; 7-day repeat dose, sacrificed on Day 8): absent | decrease in unsaturated iron binding capacity [3, 6]: 16-62% | increase in serum total iron levels compared with pretest [3, 6]: ~2 fold | emesis and diarrhea ([3]; formulated capsules once daily for 7 days, 75.1, 150, or 300 mg/kg, ~1 hr post-dose): dose dependent, transient emesis and diarrhea | electrocardiographic, heart rate, or blood pressure findings [4]: no electrocardiographic, heart rate, or blood pressure findings | inhibition of CYP2C9 activity (CYP2C9): did not inhibit | time of slight to moderate emesis post-dose ([5]; 3,4,3-L1(1,2-HOPO) treatment groups): < 2 h | changes in body weight, food consumption, ophthalmology, cardiovascular assessments, clinical pathology, urinalysis, gross necropsy observations, or organ weights ([5]; 37.5, 75, or 150 mg/kg): no meaningful changes | increase in BUN relative to pre-test [5, 7]: 1.8 fold | increase in CR relative to pre-test [5, 7]: 1.3 fold | serum iron, unsaturated iron binding capacity, total iron binding capacity, magnesium, and ferritin ([5]; Days 2 or 15, treated groups compared with controls): none of these parameters were meaningfully altered | Post-dose emesis ([5]; high dose group): 3 dogs out of 12 dogs per group | Extreme diarrhea, incidence ([5]; high-dose (150 mg/kg) males, Day 1): 33% | Slight diarrhea, incidence ([5]; high-dose group (150 mg/kg) females, Day 1): 33% | Slight diarrhea, incidence ([5]; high-dose group (150 mg/kg) males, Day 1): 17% | Renal findings (tubular casts and dilation, interstitial hemorrhage, hemosiderin pigmentation), incidence ([5]; high-dose group (150 mg/kg), Day 15 recovery sacrifice): 1 of 3 | Post-dose emesis ([5]; low dose group): 1 dogs out of 12 dogs per group | Diarrhea ([5]; low-dose group (37.5 mg/kg)): absent | Post-dose emesis ([5]; mid dose group): 2 dogs out of 12 dogs per group | Slight diarrhea, incidence ([5]; mid-dose group (75 mg/kg) females, Day 1): 67% | MTD ([5]; single oral administration, dogs): greater than 150 mg/kg | inhibition of CYP2C19 activity (CYP2C19): did not inhibit
